# Assays:
# Setaria viridis = experiment: Greenhouse post-emergence herbicidal test; format: in vivo; conditions: application rate 1 kg/ha
# From the text: (§1) The seeds of the test plants were sown separately for each species. For the post-emergence treatment, the test plants were first grown to a height of 3 to 15 cm, depending on the plant habit, and only then treated with the active compounds which had been suspended or emulsified in water. For this purpose, the test plants were either sown directly and grown in the same containers, or they were first grown separately as seedlings and transplanted into the test containers a few days prior to treatment. The rate of application for the post-emergence treatment was 1.0 kg/ha of a.s. (active substance). Depending on the species, the plants were kept at 10-25° C. or 20-35° C. The test period extended over 2 to 4 weeks. During this time, the plants were tended, and their response to the individual treatments was evaluated. Evaluation was carried out using a scale from 0 to 100. 100 means no emergence of the plants, or complete destruction of at least the aerial parts, and 0 means no damage, or normal course of growth. The plants used in the greenhouse experiments belonged to the following species: [table]
# Chenopodium album = experiment: Greenhouse post-emergence herbicidal test; format: in vivo
# From the text: as §1, with “The rate of application for the post-emergence treatment was 1.0 kg/ha of a.s.” left out
# Amaranthus retroflexus = experiment: Greenhouse post-emergence herbicidal test; format: in vivo
# From the text: as §1, with “The rate of application for the post-emergence treatment was 1.0 kg/ha of a.s.” left out
# Galium aparine = experiment: Greenhouse post-emergence herbicidal test; format: in vivo; conditions: application rate 0.25 kg/ha
# From the text: as §1, with “The rate of application for the post-emergence treatment was 1.0 kg/ha of a.s.” left out
Structure (SMILES),melting point,post-emergence action against Setaria viridis (Setaria viridis),post-emergence action against Chenopodium album (Chenopodium album; application rate 1 kg/ha),post-emergence action against Amaranthus retroflexus (Amaranthus retroflexus; application rate 1 kg/ha),post-emergence action against Chenopodium album (Chenopodium album; application rate 0.25 kg/ha),post-emergence action against Amaranthus retroflexus (Amaranthus retroflexus; application rate 0.25 kg/ha),post-emergence action against Galium aparine (Galium aparine)
"CNC(=O)C(NC(=O)c1cn(C)nc1C(F)(F)F)C(CO)c1ccccc1 (racemic) [Compound 3.1, N-(3-hydroxy-1-methylcarbamoyl-2-phenyl-propyl)-1-methyl-3-trifluoromethyl-1H-pyrazole-4-carboxamide]",194 °C,very good,very good,very good,–,–,–
"CNC(=O)C(NC(=O)c1cn(C)nc1C(F)(F)F)C(CO)c1ccccc1 (racemic) [Compound 3.2, N-(3-hydroxy-1-methylcarbamoyl-2-phenyl-propyl)-1-methyl-3-trifluoromethyl-1H-pyrazole-4-carboxamide]",202 °C,very good,very good,very good,–,–,–
"CNC(=O)C(NC(=O)c1cn(C)nc1C(F)(F)F)C(COC(C)=O)c1ccccc1 (single isomer, unassigned) [Compound 3.7, 3-Methylcarbamoyl-3-[(1-methyl-3-trifluoromethyl-1H-pyrazole-4-carbonyl)amino]-2-phenylpropyl Acetate]",–,very good,very good,very good,–,–,–

# Further lines, with some results ahead:
melting point,Structure (SMILES),post-emergence action against Setaria viridis (Setaria viridis),post-emergence action against Chenopodium album (Chenopodium album; application rate 1 kg/ha),post-emergence action against Amaranthus retroflexus (Amaranthus retroflexus; application rate 1 kg/ha),post-emergence action against Chenopodium album (Chenopodium album; application rate 0.25 kg/ha),post-emergence action against Amaranthus retroflexus (Amaranthus retroflexus; application rate 0.25 kg/ha),post-emergence action against Galium aparine (Galium aparine)
91 °C,"CNC(=O)[C@@H](NC(=O)c1cn(C)nc1C(F)(F)F)[C@H](CN)c1ccccc1 (racemic) [Compound 4.5, N-{(1RS,2RS)-3-Amino-1-[(methylamino)carbonyl]-2-phenylpropyl}-1-methyl-3-(trifluoromethyl)-1H-pyrazole-4-carboxamide]",–,–,–,–,–,–
233 °C,"CNC(=O)[C@H](NC(=O)c1cn(C)nc1C(F)(F)F)[C@H](CNC(=O)C(F)(F)F)c1ccccc1 (racemic) [Compound 4.17, 1-Methyl-N-{(1RS,2SR)-1-[(methylamino)carbonyl]-2-phenyl-3-(2,2,2-trifluoroacetylamino)propyl}-3-(trifluoromethyl)-1H-pyrazole-4-carboxamide]",–,–,–,–,–,–
119 °C,"CNC(=O)[C@H](NC(=O)c1cn(C)nc1C(F)(F)F)[C@H](C[N+](=O)[O-])c1ccccc1 (racemic) [Compound 5.3, 1-Methyl-N-{(1RS,2SR)-1-[(methylamino)carbonyl]-3-nitro-2-phenylpropyl}-3-(trifluoromethyl)-1H-pyrazole-4-carboxamide]",–,–,–,very good,very good,very good

# — patent publication US20090186766A1, “Heteroaroyl-Substituted Alanines with a Herbicidal Action” (BASF SE, priority 2006, published 2009)
